# Assay results reported in US4753953A, “Pyridonecarboxylic acid derivatives and antibacterial pharmaceutical compositions thereof” (priority 1985, dated 1988).
# Tests used:
# [1] = tested on: Bacillus subtilis PCI 219; experiment: MIC, in vitro antibacterial activity (standard strains); format: cell-based; settings: Bacillus subtilis, PCI219; 10^6 cells/ml; Gram +; read-out: MIC
# [2] = tested on: Staphylococcus aureus 209 P; experiment: as above; format: cell-based; settings: Staphylococcus aureus, 209P; 10^6 cells/ml; Gram +; read-out: MIC
# [3] = tested on: S. aureus Smith; experiment: as above; format: cell-based, Staphylococcus aureus; settings: Staphylococcus aureus; 10^6 cells/ml; Gram +; read-out: MIC
# [4] = tested on: S. aureus IID 670 (Terajima); experiment: as above; format: cell-based, Staphylococcus aureus; settings: Staphylococcus aureus, IID670; 10^6 cells/ml; Gram +; read-out: MIC
# [5] = tested on: S. pyogenes IID 692; experiment: as above; format: cell-based, Streptococcus pyogenes; settings: Streptococcus pyogenes, IID692; 10^6 cells/ml; Gram +; read-out: MIC
# [6] = tested on: S. pneumoniae IID 552; experiment: as above; format: cell-based; settings: Streptococcus pneumoniae, IID552; 10^6 cells/ml; Gram +; read-out: MIC
# [7] = tested on: E. faecalis IID 682; experiment: as above; format: cell-based; settings: Enterococcus faecalis, IID682; 10^6 cells/ml; Gram +; read-out: MIC
# [8] = tested on: E. coli ATCC 10536; experiment: as above; format: cell-based, Escherichia coli; settings: Escherichia coli, ATCC10536; 10^6 cells/ml; Gram -; read-out: MIC
# [9] = tested on: Proteus vulgaris IFO 3167; experiment: as above; format: cell-based; settings: Proteus vulgaris, IFO3167; 10^6 cells/ml; Gram -; read-out: MIC
# [10] = tested on: P. mirabilis IID 994; experiment: as above; format: cell-based; settings: Proteus mirabilis, IID994; 10^6 cells/ml; Gram -; read-out: MIC
# [11] = tested on: Morganella morganii IID 602; experiment: as above; format: cell-based; settings: Morganella morganii, IID602; 10^6 cells/ml; Gram -; read-out: MIC
# [12] = tested on: Klebsiella pneumoniae KY(GN)6445; experiment: as above; format: cell-based; settings: Klebsiella pneumoniae; 10^6 cells/ml; Gram -; read-out: MIC
# [13] = tested on: K. pneumoniae 1-220S; experiment: as above; format: cell-based, Klebsiella pneumoniae; settings: Klebsiella pneumoniae, 1220S; 10^6 cells/ml; Gram -; read-out: MIC
# [14] = tested on: Serratia marcescens IID 618; experiment: as above; format: cell-based; settings: Serratia marcescens, IID618; 10^6 cells/ml; Gram -; read-out: MIC
# [15] = tested on: Salmonella enteritidis IID 604; experiment: as above; format: cell-based; settings: Salmonella enterica; 10^6 cells/ml; Gram -; read-out: MIC
# [16] = tested on: P. aeruginosa IFO 12689; experiment: as above; format: cell-based, Pseudomonas aeruginosa; settings: Pseudomonas aeruginosa, IFO12689; 10^6 cells/ml; Gram -; read-out: MIC
# [17] = tested on: P. aeruginosa IID 1210; experiment: as above; format: cell-based, Pseudomonas aeruginosa; settings: Pseudomonas aeruginosa, IID1210; 10^6 cells/ml; Gram -; read-out: MIC
# [18] = tested on: P. cepacia GIFU 518; experiment: as above; format: cell-based; settings: Burkholderia cepacia, GIFU518
# [19] = tested on: Alcaligenes faecalis 0114002; experiment: as above; format: cell-based; settings: Alcaligenes faecalis, 0114002; 10^6 cells/ml; Gram -; read-out: MIC
# [20] = tested on: Bacteroides fragilis GM 7000; experiment: as above; format: cell-based; settings: Bacteroides fragilis, GM7000; 10^6 cells/ml; Gram -; read-out: MIC
# [21] = tested on: B. fragilis 0558; experiment: as above; format: cell-based, Bacteroides fragilis; settings: Bacteroides fragilis, 0558; 10^6 cells/ml; Gram -; read-out: MIC
# [22] = tested on: B. distasonis 8503; experiment: as above; format: cell-based; settings: Parabacteroides distasonis, 8503; 10^6 cells/ml; Gram -; read-out: MIC
# [23] = tested on: B. thetaiotaomicron (0661); experiment: as above; format: cell-based; settings: Bacteroides thetaiotaomicron; 10^6 cells/ml; Gram -; read-out: MIC
# [24] = tested on: B. vulgatus KYA 29327; experiment: as above; format: cell-based; settings: Phocaeicola vulgatus, KYA29327; 10^6 cells/ml; Gram -; read-out: MIC
# [25] = tested on: F. necrophorum S-45; experiment: as above; format: cell-based; settings: Fusobacterium necrophorum, S45; 10^6 cells/ml; Gram -; read-out: MIC
# [26] = tested on: Eubacterium lentum GAI 5242; experiment: as above; format: cell-based; settings: Eggerthella lenta, GAI5242; 10^6 cells/ml; Gram +; read-out: MIC
# [27] = tested on: E. limosum KYA 8486; experiment: as above; format: cell-based; settings: Eubacterium limosum, KYA8486; 10^6 cells/ml; Gram +; read-out: MIC
# [28] = tested on: Clostridium difficile I-E; experiment: as above; format: cell-based; settings: Clostridioides difficile; 10^6 cells/ml; Gram +
# [29] = tested on: C. perfringens KYA 13123; experiment: microbe, parasite or virus in culture; format: cell-based; settings: Clostridium perfringens, KYA13123
# [30] = tested on: C. ramosum; experiment: MIC, in vitro antibacterial activity (standard strains); format: cell-based; settings: Thomasclavelia ramosa; 10^6 cells/ml; Gram +; read-out: MIC
# [31] = tested on: Peptostreptococcus anaerobius KYA 27337; experiment: as above; format: cell-based; settings: Peptostreptococcus anaerobius, KYA27337; 10^6 cells/ml; Gram +; read-out: MIC
# [32] = tested on: Pst. micros UPI 5464-1; experiment: as above; format: cell-based; settings: Parvimonas micra, UPI54641; 10^6 cells/ml; Gram +; read-out: MIC
# [33] = tested on: Veillonella parvula KYA 10790; experiment: as above; format: cell-based; settings: Veillonella parvula, KYA10790; 10^6 cells/ml; Gram -; read-out: MIC
SMILES,MIC [1] [µg/mL],MIC [2] [µg/mL],MIC [3] [µg/mL],MIC [4] [µg/mL],MIC [5] [µg/mL],MIC [6] [µg/mL],MIC [7] [µg/mL],MIC [8] [µg/mL],MIC [9] [µg/mL],MIC [10] [µg/mL],MIC [11] [µg/mL],MIC [12] [µg/mL],MIC [13] [µg/mL],MIC [14] [µg/mL],MIC [15] [µg/mL],MIC [16] [µg/mL],MIC [17] [µg/mL],MIC [18] [µg/mL],MIC [19] [µg/mL],MIC [20] [µg/mL],also measured
"CNCC1CN(c2c(F)cc3c(=O)c(C(=O)O)cn(C4CC4)c3c2F)CC1C (stereo not drawn) [Example 13, 1-Cyclopropyl-6,8-difluoro-1,4-dihydro-7-(3-methylaminomethyl-4-methyl-1-pyrrolidinyl)-4-oxo-3-quinolinecarboxylic acid]",0.025,0.05,0.05,0.05,0.2,0.1,0.2,0.05,0.05,0.2,0.2,0.05,0.2,0.2,0.1,3.13,1.56,0.78,0.78,0.78,MIC [21]: 0.78 µg/mL; MIC [22]: 3.13 µg/mL; MIC [23]: 3.13 µg/mL; MIC [24]: 1.56 µg/mL; MIC [25]: 0.39 µg/mL; MIC [26]: 0.78 µg/mL; MIC [27]: 1.56 µg/mL; MIC [28]: 0.78 µg/mL; MIC [29]: 0.2 µg/mL; MIC [30]: 0.78 µg/mL; MIC [31]: 0.2 µg/mL; MIC [32]: 0.78 µg/mL; MIC [33]: 0.78 µg/mL
"CCNCC1CN(c2c(F)cc3c(=O)c(C(=O)O)cn(C4CC4)c3c2Cl)CC1C (stereo not drawn) [Example 14, 8-Chloro-1-cyclopropyl-7-(3-ethylaminomethyl-4-methyl-1-pyrrolidinyl)-6-fluoro-1,4-dihydro-4-oxo-3-quinolinecarboxylic acid]",0.0125,0.0125,0.0125,0.0125,0.05,0.05,0.05,0.025,0.05,0.1,0.2,0.05,0.2,0.2,0.2,3.13,3.13,0.78,0.78,0.1,MIC [21]: ≤ 0.05 µg/mL; MIC [22]: 0.39 µg/mL; MIC [23]: 0.2 µg/mL; MIC [24]: ≤ 0.05 µg/mL; MIC [25]: 0.1 µg/mL; MIC [26]: 0.2 µg/mL; MIC [27]: 0.78 µg/mL; MIC [28]: 0.1 µg/mL; MIC [29]: ≤ 0.05 µg/mL; MIC [30]: 0.2 µg/mL; MIC [31]: ≤ 0.05 µg/mL; MIC [32]: 0.39 µg/mL; MIC [33]: 0.39 µg/mL
"CCNCC1CN(c2c(F)cc3c(=O)c(C(=O)O)cn(C4CC4)c3c2F)CC1C (stereo not drawn) [Example 15, 1-Cyclopropyl-7-(3-ethylaminomethyl-4-methyl-1-pyrrolidinyl)-6,8-difluoro-1,4-dihydro-4-oxo-3-quinolinecarboxylic acid]",0.025,0.05,0.05,0.05,0.1,0.1,0.1,0.05,0.1,0.1,0.2,0.05,0.2,0.2,0.2,3.13,3.13,0.78,0.78,0.78,MIC [21]: 0.39 µg/mL; MIC [22]: 3.13 µg/mL; MIC [23]: 1.56 µg/mL; MIC [24]: 0.78 µg/mL; MIC [25]: 0.39 µg/mL; MIC [26]: 0.39 µg/mL; MIC [27]: 1.56 µg/mL; MIC [28]: 0.78 µg/mL; MIC [29]: 0.1 µg/mL; MIC [30]: 0.78 µg/mL; MIC [31]: 0.2 µg/mL; MIC [32]: 0.78 µg/mL; MIC [33]: 0.78 µg/mL
